In the test the target is T1, RihA (Escherichia coli, UniProt P41409).
T1 construct: full-length rihA (936 bp) from E. coli K12 derivative DH5α; N-terminal His-tag removed with thrombin; tetramer
The test is described as follows: X-ray co-crystal structure at […] Å; KI from competitive inhibition of uridine hydrolysis by purified enzyme. In kind it is biochemical.

Molecules are shown by their SMILES.

T1 sequence (P41409 whole entry): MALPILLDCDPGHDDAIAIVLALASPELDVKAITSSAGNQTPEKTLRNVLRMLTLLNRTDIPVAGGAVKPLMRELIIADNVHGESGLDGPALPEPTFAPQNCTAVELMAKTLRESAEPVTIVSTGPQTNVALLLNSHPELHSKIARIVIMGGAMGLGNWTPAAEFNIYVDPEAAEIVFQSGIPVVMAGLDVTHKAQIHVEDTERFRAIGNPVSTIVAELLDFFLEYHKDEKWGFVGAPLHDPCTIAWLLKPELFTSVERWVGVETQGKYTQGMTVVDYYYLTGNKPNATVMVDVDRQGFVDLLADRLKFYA

In general, Ki refers to the dissociation constant of the complex between target and ligand, obtained from inhibition or displacement. A high value points to a looser hold on the target. The compound `Nc1ccc([C@@H]2N[C@H](CO)[C@@H](O)[C@H]2O)cc1N` [DAPIR] showed a Ki of 85 ± 7 µM.
